Here are results for 5 molecules from paper PMC9171976 (Frontiers in Nutrition, 2022).

For data set [1] the following is noted: same extract given daily for 2 weeks and simultaneously with the dose of rosuvastatin; cited from earlier work.
Data set [2] can be described thus: Simvastatin-herb pharmacokinetic interaction study, plasma simvastatin lactone and acid by LC-MS/MS. As to conditions: male, human, po, 20 mg.
For data set [3] the following is noted: rats; single oral dose of green tea extract 400 mg/kg 30 min before simvastatin; cited from earlier work.
Details of data set [4]: method as in PMID 24419562. As to conditions: healthy volunteers; cited from earlier work.
For data set [5] the following is noted: male, human, in vivo, 20 mg.
A short description of the next data set: clinical. As to conditions: male, human, in vivo, 20 mg.
The subject of the next data set is human OATP1B1. Details: method as in PMID 32006472. The settings on record: low concentration; CHO cells; cited from earlier work.

Molecules are shown by their SMILES.

On to `CC(C)c1nc(N(C)S(C)(=O)=O)nc(-c2ccc(F)cc2)c1/C=C/[C@@H](O)C[C@@H](O)CC(=O)O` [rosuvastatin], for which, in data set [1], the “Reduction of systemic exposure with green tea extract” value is on record as “about 20%”.

For `CCC(C)(C)C(=O)O[C@H]1C[C@@H](C)C=C2C=C[C@H](C)[C@H](CC[C@@H]3C[C@@H](O)CC(=O)O3)[C@H]21` [Simvastatin lactone, simvastatin], the half-life in data set [2] (T1/2, 18 subjects, simvastatin 20 mg with green tea extract, geometric mean (% CV)) was 4.96 h; in data set [2] (T1/2, 18 subjects, simvastatin 20 mg with soy isoflavones, geometric mean (% CV)) it was 4.51 h; in data set [2] (T1/2, SLCO1B1 521CC (n = 4), after green tea) it was 3.98 h; in data set [2] (T1/2, SLCO1B1 521CC (n = 4), after soy isoflavones) it was 3.9 h; in data set [2] (T1/2, SLCO1B1 521CC (n = 4), baseline), 4.83 h; in data set [2] (T1/2, SLCO1B1 521TC (n = 8), after green tea), 4.72 h. Besides, the half-life in data set [2] (T1/2, SLCO1B1 521TC (n = 8), after soy isoflavones) is 4.71 h; in data set [2] (T1/2, SLCO1B1 521TC (n = 8), baseline), 4.54 h; in data set [2] (T1/2, SLCO1B1 521TT (n = 6), after green tea), 6.15 h; in data set [2] (T1/2, SLCO1B1 521TT (n = 6), after soy isoflavones), 4.71 h. Further, the “Effect of green tea extract on t1/2” value in data set [3] was “no effect”.

In the case of `CC(C)(C)NCC(O)COc1cccc2c1CC(O)C(O)C2` (stereo not shown) [nadolol], the “Reduction of systemic exposure with green tea taken as a drink” value in data set [4] is 85%.

In the case of `CCC(C)(C)C(=O)O[C@H]1C[C@@H](C)C=C2C=C[C@H](C)[C@H](CC[C@@H](O)C[C@@H](O)CC(=O)O)[C@H]21` [Simvastatin acid, simvastatin acid], the “AUC0–24h” value in data set [5] was 12.1 (54.6) h⋅μg/L. The AUC(0-t) in the data set “clinical” (AUC0–24h) was determined as 16.1 ng·h/mL. The molecule further gave a half-life in “clinical” (po, T1/2) of 3.94 h. For the same molecule, the Tmax in the data set “clinical” (po, Tmax) amounted to 3.5 h. Also, in data set [3], the “Increase of AUC0–6h with green tea extract” value was 2.0 fold.

On to `O=C(O[C@@H]1Cc2c(O)cc(O)cc2O[C@@H]1c1ccc(O)c(O)c1)c1cc(O)c(O)c(O)c1` [epicatechin gallate (ECG), epicatechin gallate], for which the “Stimulating effect on OATP1B1-mediated DCF uptake” value with human OATP1B1 is listed as “about 160%”.

Usually half-life stands for how long it takes for the measured level to halve. In general, AUC(0-t) refers to exposure summed from dosing to a finite time, without extrapolation to infinity. Lower therefore signals low exposure. What is called Tmax is the time at which the peak concentration occurs.
